Measurements: patent US8192962B2, “Processes for detecting toxic substances” (Daikin Industries, Ltd., priority 2001, dated 2012)

Test system: Metabolism protein genes
Experiment: DNA chip mRNA expression in yeast, metabolism protein genes (Table 7)
Type: cell-based, Saccharomyces cerevisiae S288C
In short: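 S. cerevisiae S288C grown at 25° C in YPD were exposed in log phase for two hours to one toxic chemical at a growth-inhibiting, non-lethal concentration; untreated cells served as control. Poly(A) mRNA was reverse-transcribed with Cy3/Cy5-dUTP and hybridized to a whole-genome yeast DNA chip at 65° C for over 12 hours; values are fluorescence ratios versus untreated.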

[Cl][Cd][Cl] [(2), CdCl2]
The level of expressed mRNA in the presence of chemical substance/The level of expressed mRNA in the absence of chemical substance (yeast gene YJR155W): 3.7
The level of expressed mRNA in the presence of chemical substance/The level of expressed mRNA in the absence of chemical substance (yeast gene YKL035W): 0.9
level of expressed mRNA in the presence/in the absence of chemical substance (yeast gene YKL060C): 0.8
The level of expressed mRNA in the presence of chemical substance/The level of expressed mRNA in the absence of chemical substance (yeast gene YKL091C): 1.3
The level of expressed mRNA in the presence of chemical substance/The level of expressed mRNA in the absence of chemical substance (yeast gene YKL104C): 1.0
level of expressed mRNA in the presence/in the absence of chemical substance (yeast gene YKL148C): 0.8
The level of expressed mRNA in the presence of chemical substance/The level of expressed mRNA in the absence of chemical substance (yeast gene YKL152C): 1.3
level of expressed mRNA in the presence/in the absence of chemical substance (yeast gene YKL157W): 1.0
The level of expressed mRNA in the presence of chemical substance/The level of expressed mRNA in the absence of chemical substance (yeast gene YKL213C): 0.8
The level of expressed mRNA in the presence of chemical substance/The level of expressed mRNA in the absence of chemical substance (yeast gene YKL215C): 1.1
level of expressed mRNA in the presence/in the absence of chemical substance (yeast gene YKR034W): 1.5
The level of expressed mRNA in the presence of chemical substance/The level of expressed mRNA in the absence of chemical substance (yeast gene YLL058W): 3.8
level of expressed mRNA in the presence/in the absence of chemical substance (yeast gene YLR006C): 0.7
level of expressed mRNA in the presence/in the absence of chemical substance (yeast gene YLR044C): 0.6
level of expressed mRNA in the presence/in the absence of chemical substance (yeast gene YLR056W): 0.6
level of expressed mRNA in the presence/in the absence of chemical substance (yeast gene YLR058C): 0.8
level of expressed mRNA in the presence/in the absence of chemical substance (yeast gene YLR081W): 0.8
level of expressed mRNA in the presence/in the absence of chemical substance (yeast gene YLR089C): 1.2
The level of expressed mRNA in the presence of chemical substance/The level of expressed mRNA in the absence of chemical substance (yeast gene YLR180W): 1.4
The level of expressed mRNA in the presence of chemical substance/The level of expressed mRNA in the absence of chemical substance (yeast gene YLR273C): 1.0
level of expressed mRNA in the presence/in the absence of chemical substance (yeast gene YLR284C): 1.0
The level of expressed mRNA in the presence of chemical substance/The level of expressed mRNA in the absence of chemical substance (yeast gene YLR299W): 1.9
The level of expressed mRNA in the presence of chemical substance/The level of expressed mRNA in the absence of chemical substance (yeast gene YLR300W): 0.8
level of expressed mRNA in the presence/in the absence of chemical substance (yeast gene YLR304C): 0.6
The level of expressed mRNA in the presence of chemical substance/The level of expressed mRNA in the absence of chemical substance (yeast gene YLR307W): 0.4
The level of expressed mRNA in the presence of chemical substance/The level of expressed mRNA in the absence of chemical substance (yeast gene YLR348C): 4.5
level of expressed mRNA in the presence/in the absence of chemical substance (yeast gene YLR354C): 2.5
level of expressed mRNA in the presence/in the absence of chemical substance (yeast gene YLR372W): 0.3
level of expressed mRNA in the presence/in the absence of chemical substance (yeast gene YML022W): 0.6
The level of expressed mRNA in the presence of chemical substance/The level of expressed mRNA in the absence of chemical substance (yeast gene YML054C): 1.8
The level of expressed mRNA in the presence of chemical substance/The level of expressed mRNA in the absence of chemical substance (yeast gene YML070W): 1.7
The level of expressed mRNA in the presence of chemical substance/The level of expressed mRNA in the absence of chemical substance (yeast gene YML100W): 2.7
The level of expressed mRNA in the presence of chemical substance/The level of expressed mRNA in the absence of chemical substance (yeast gene YMR008C): 0.9
level of expressed mRNA in the presence/in the absence of chemical substance (yeast gene YMR011W): 1.0
level of expressed mRNA in the presence/in the absence of chemical substance (yeast gene YMR015C): 0.7
The level of expressed mRNA in the presence of chemical substance/The level of expressed mRNA in the absence of chemical substance (yeast gene YMR020W): 1.0
level of expressed mRNA in the presence/in the absence of chemical substance (yeast gene YMR083W): 1.7
The level of expressed mRNA in the presence of chemical substance/The level of expressed mRNA in the absence of chemical substance (yeast gene YMR105C): 3.0
The level of expressed mRNA in the presence of chemical substance/The level of expressed mRNA in the absence of chemical substance (yeast gene YMR189W): 0.8
level of expressed mRNA in the presence/in the absence of chemical substance (yeast gene YMR205C): 0.7
level of expressed mRNA in the presence/in the absence of chemical substance (yeast gene YMR261C): 1.6
The level of expressed mRNA in the presence of chemical substance/The level of expressed mRNA in the absence of chemical substance (yeast gene YMR271C): 1.6
The level of expressed mRNA in the presence of chemical substance/The level of expressed mRNA in the absence of chemical substance (yeast gene YMR296C): 0.7
level of expressed mRNA in the presence/in the absence of chemical substance (yeast gene YMR323W): 1.1
The level of expressed mRNA in the presence of chemical substance/The level of expressed mRNA in the absence of chemical substance (yeast gene YNL012W): 1.3
level of expressed mRNA in the presence/in the absence of chemical substance (yeast gene YNL025C): 1.4
The level of expressed mRNA in the presence of chemical substance/The level of expressed mRNA in the absence of chemical substance (yeast gene YNL045W): 1.3
The level of expressed mRNA in the presence of chemical substance/The level of expressed mRNA in the absence of chemical substance (yeast gene YNL104C): 1.3
The level of expressed mRNA in the presence of chemical substance/The level of expressed mRNA in the absence of chemical substance (yeast gene YNL106C): 1.4
The level of expressed mRNA in the presence of chemical substance/The level of expressed mRNA in the absence of chemical substance (yeast gene YNL169C): 1.4
level of expressed mRNA in the presence/in the absence of chemical substance (yeast gene YNL192W): 1.2
The level of expressed mRNA in the presence of chemical substance/The level of expressed mRNA in the absence of chemical substance (yeast gene YNL231C): 0.8
The level of expressed mRNA in the presence of chemical substance/The level of expressed mRNA in the absence of chemical substance (yeast gene YNL322C): 0.9
The level of expressed mRNA in the presence of chemical substance/The level of expressed mRNA in the absence of chemical substance (yeast gene YNL331C): 3.6
The level of expressed mRNA in the presence of chemical substance/The level of expressed mRNA in the absence of chemical substance (yeast gene YNL332W): 1.5
The level of expressed mRNA in the presence of chemical substance/The level of expressed mRNA in the absence of chemical substance (yeast gene YNR019W): 1.3
The level of expressed mRNA in the presence of chemical substance/The level of expressed mRNA in the absence of chemical substance (yeast gene YNR033W): 0.8
The level of expressed mRNA in the presence of chemical substance/The level of expressed mRNA in the absence of chemical substance (yeast gene YNR059W): 0.9
The level of expressed mRNA in the presence of chemical substance/The level of expressed mRNA in the absence of chemical substance (yeast gene YOL058W): 0.5
level of expressed mRNA in the presence/in the absence of chemical substance (yeast gene YOL086C): 0.5
level of expressed mRNA in the presence/in the absence of chemical substance (yeast gene YOL108C): 1.5
level of expressed mRNA in the presence/in the absence of chemical substance (yeast gene YOL116W): 1.0
The level of expressed mRNA in the presence of chemical substance/The level of expressed mRNA in the absence of chemical substance (yeast gene YOL126C): 0.8
The level of expressed mRNA in the presence of chemical substance/The level of expressed mRNA in the absence of chemical substance (yeast gene YOL153C): 1.2
level of expressed mRNA in the presence/in the absence of chemical substance (yeast gene YOL156W): 0.7
The level of expressed mRNA in the presence of chemical substance/The level of expressed mRNA in the absence of chemical substance (yeast gene YOL165C): 4.5
level of expressed mRNA in the presence/in the absence of chemical substance (yeast gene YOR002W): 1.1
level of expressed mRNA in the presence/in the absence of chemical substance (yeast gene YOR085W): 0.8
The level of expressed mRNA in the presence of chemical substance/The level of expressed mRNA in the absence of chemical substance (yeast gene YOR099W): 1.3
level of expressed mRNA in the presence/in the absence of chemical substance (yeast gene YOR103C): 0.8
level of expressed mRNA in the presence/in the absence of chemical substance (yeast gene YOR108W): 0.9
level of expressed mRNA in the presence/in the absence of chemical substance (yeast gene YOR128C): 0.7
The level of expressed mRNA in the presence of chemical substance/The level of expressed mRNA in the absence of chemical substance (yeast gene YOR130C): 1.7
level of expressed mRNA in the presence/in the absence of chemical substance (yeast gene YOR142W): 1.2
level of expressed mRNA in the presence/in the absence of chemical substance (yeast gene YOR176W): 2.6
level of expressed mRNA in the presence/in the absence of chemical substance (yeast gene YOR178C): 1.3
level of expressed mRNA in the presence/in the absence of chemical substance (yeast gene YOR251C): 1.0
The level of expressed mRNA in the presence of chemical substance/The level of expressed mRNA in the absence of chemical substance (yeast gene YOR336W): 1.4
The level of expressed mRNA in the presence of chemical substance/The level of expressed mRNA in the absence of chemical substance (yeast gene YOR347C): 0.9
level of expressed mRNA in the presence/in the absence of chemical substance (yeast gene YOR348C): 0.7
The level of expressed mRNA in the presence of chemical substance/The level of expressed mRNA in the absence of chemical substance (yeast gene YPL017C): 2.5
level of expressed mRNA in the presence/in the absence of chemical substance (yeast gene YPL028W): 0.9
level of expressed mRNA in the presence/in the absence of chemical substance (yeast gene YPL057C): 1.1
level of expressed mRNA in the presence/in the absence of chemical substance (yeast gene YPL135W): 1.2
level of expressed mRNA in the presence/in the absence of chemical substance (yeast gene YPL148C): 0.8
The level of expressed mRNA in the presence of chemical substance/The level of expressed mRNA in the absence of chemical substance (yeast gene YPR026W): 1.2
level of expressed mRNA in the presence/in the absence of chemical substance (yeast gene YPR113W): 0.8
level of expressed mRNA in the presence/in the absence of chemical substance (yeast gene YPR165W): 0.7
The level of expressed mRNA in the presence of chemical substance/The level of expressed mRNA in the absence of chemical substance (yeast gene YPR167C): 5.8
level of expressed mRNA in the presence/in the absence of chemical substance (yeast gene YPR183W): 1.5
